Measurements taken from patent US20220096449A1, “METHOD OF TREATMENT WITH TRADIPITANT” (Vanda Pharmaceuticals Inc., priority 2018, published 2022).
Values joined by “and” are separate entries in the source; they are usually repeats but may differ in a detail not shown here. Equal values may be shown once.

Assays:
[1] = tested on: panel of 74 other receptors, enzymes, and ion channels; test: Binding panel of 74 other receptors, enzymes and ion channels; details: test concentration of 1 μM; any of 74 targets
[2] = Plasma concentration of tradipitant 2 hours post-dose in dogs; type: in vivo, beagle dog; details: individual dogs
Protocol: All animals are dosed over a period of five (5) weeks, with each dog receiving one of five different treatments on each day of dosing. […] In cases where apomorphine is administered alone, without prior treatment with tradipitant or aprepitant, apomorphine is given at approximately the same time as when given in combination with tradipitant or aprepitant.

[3] = tested on: brain NK-1 receptors; test: Brain NK-1 receptor occupancy with tracer GR205171; type: in vivo; details: p.o., tracer GR205171 iv
Protocol: A tracer NK-1 antagonist compound (GR205171) is used to evaluate the ability of other NK-1 antagonists to occupy the brain NK-1 receptors. In these studies, the test compounds are administered orally and the tracer compound is administered intravenously afterward. The occupancy of the NK-1 receptors is evaluated by quantitating the amount of the tracer compound bound to the brain NK-1 receptors after increasing doses of the test compounds.

[4] = tested on: patients with gastroparesis; test: Phase II gastroparesis study, open label extension (Example 4); type: in vivo, human
Text: In a phase II study of tradipitant in patients with gastroparesis, participants initially enter 4 week screening period prior to treatment with tradipitant, during which they answer a daily symptom questionnaire rating their nausea severity on a scale of 0 to 5, in which 0 represents no nausea, 1 represents very mild nausea, 2 represents mild nausea, 3 represents moderate nausea, 4 represents severe nausea, and 5 represents very severe nausea. After the 4 week screening period, patients enter the double blind randomized portion of the study, in which they receive either tradipitant 85 mg bid, or placebo. After 4 weeks of blinded study drug treatment, patients have the opportunity to enter an additional 8 week open label extension, during which each subject receives tradipitant 85 mg bid. 64 subjects participate in at least one week of the open label tradipitant dosing portion of the study. The average daily diarized nausea scores are reported for subjects during the 4 week screening period and during the up to 8 week open label extension.

[5] = tested on: patients with idiopathic and diabetic gastroparesis; test: Phase II study VLY-686-2301, double blind randomized portion (Example 5); type: in vivo, human; details: for CGI-S, change from baseline / DD-% Nausea Free Days, change from baseline / DD-Nausea (Daily Diary Nausea Score, 0-5), change from baseline / GCSI, change from baseline / PAGI-SYM, change from baseline / PGI-C: 4 weeks; for Daily Diary Nausea Weekly Average, Effect size estimate: tradipitant treatment arm
Text: In a phase II study of tradipitant in patients with idiopathic and diabetic gastroparesis, participants enter a 4 week screening period prior to treatment with tradipitant, during which they answer a daily symptom questionnaire rating their nausea severity on a scale of 0 to 5, in which 0 represents no nausea, 1 represents very mild nausea, 2 represents mild nausea, 3 represents moderate nausea, 4 represents severe nausea, and 5 represents very severe nausea. After the 4 week screening period, 141 gastroparesis patients in an Intent to Treat (ITT) population enter the 4 week double blind randomized portion of the study, in which they receive either tradipitant 85 mg bid, or placebo. Several symptom severity scales are used to assess gastroparesis symptoms, including the […] (GCSI), Patients Assessment of Upper Gastrointestinal Disorders-Symptoms (PAGI-SYM), and Patient Global Impression of Change (PGI-C), as well as a Clinician Global Impression of Severity (CGI-S). After 4 weeks of blinded study drug treatment, patients have the opportunity to enter an additional 8 week open label extension, during which each subject receives tradipitant 85 mg bid.
Abbreviations used in Table 6 include: Daily Diary Nausea Score, 0-5 (DD-Nausea); Daily Diary Nausea Free Days, percent 0-100 (DD-% Nausea Free Days); Intent to Treat (ITT); Gastroparesis Cardinal Symptom Index (GCSI); Patient Assessment of Gastrointestinal Disorders-Symptoms (PAGI-SYM); Clinician Global Impression of Severity (CGI-S); Patient Global Impression of Change (PGI-C). For DD-Nausea, DD-% Nausea Free Days, GCSI, PAGI-SYM and CGI-S, the values shown are changes from baseline.

[6] = molecular target: NK-1 receptor (Meriones unguiculatus, UniProt Q5DUB1); test: NK-1 agonist (GR73632)-induced foot-tapping behavior in gerbils; type: in vivo; design: from tissue; host or cells: living gerbils (central NK-1 receptors); details: gerbil
Protocol: Male Mongolian gerbils (Harlan Sprague Dawley, Indianapolis, Ind.) weighing 26 to 40 grams are administered the selective neurokinin-1 receptor agonist GR73632 ([…]) via direct, vertical, free-hand intracerebroventricular (icv) injection to a depth of 4.5 mm below bregma with a cuffed 27-gauge needle attached to a 50 μl Hamilton syringe Immediately after injection, animals are placed individually into isolated chambers with pressure-sensitive velocimeter platform floors (San Diego Instruments acoustic startle apparatus) that detect and quantify vibration. The San Diego Instruments “SR” DOS-based computer program is used on a PC to record the number of foot-taps over the following 6 to 10 minutes, beginning 30 seconds after the floor is lightly tapped. Raw data are converted with a Microsoft® Excel® (Microsoft® and Excel® are registered trademarks of Microsoft Corp., Redmond, Wash.) macro that determines the number of events over threshold (125) in each 250-millisecond time bin over the 5.5 minutes following onset of observation. The total number and average intensity of events over the duration is determined. Total number of taps is analyzed with one-way ANOVA and post-hoc Dunnett's test using JMP statistical software.
A dose-response curve (with doses of 0.3, 1, 3 and 10 pmols, icv) is initially generated with the NK-1 agonist GR73632.
NK-1 antagonists are tested for their ability to attenuate GR73632-induced foot tapping. NK-1 antagonists are administered (po) via oral feeding tube at doses and time points specified in each experiment. All animals receive only one dose of NK-1 antagonists in all tests.
NK-1 antagonists are administered at multiple doses (at least 3; one dose per animal) and response to GR73632 is measured.
NK-1 receptor antagonists are administered at multiple pre-treatment times (one administration per animal) including at 0.5, 1, 2, 4, 7, 16, and 24 hours prior to GR73632 injection. GR73632 (Peninsula Labs, CA) is dissolved in saline. Tradipitant is dissolved in 1% CMC/0.5% SLS/0.085% PVP vehicle.

[7] = ITT Population, 85 mg bid, n = 73
[8] = Vomiting Population, 85 mg bid, n = 58

Sequence of NK-1 receptor (Q5DUB1 whole entry): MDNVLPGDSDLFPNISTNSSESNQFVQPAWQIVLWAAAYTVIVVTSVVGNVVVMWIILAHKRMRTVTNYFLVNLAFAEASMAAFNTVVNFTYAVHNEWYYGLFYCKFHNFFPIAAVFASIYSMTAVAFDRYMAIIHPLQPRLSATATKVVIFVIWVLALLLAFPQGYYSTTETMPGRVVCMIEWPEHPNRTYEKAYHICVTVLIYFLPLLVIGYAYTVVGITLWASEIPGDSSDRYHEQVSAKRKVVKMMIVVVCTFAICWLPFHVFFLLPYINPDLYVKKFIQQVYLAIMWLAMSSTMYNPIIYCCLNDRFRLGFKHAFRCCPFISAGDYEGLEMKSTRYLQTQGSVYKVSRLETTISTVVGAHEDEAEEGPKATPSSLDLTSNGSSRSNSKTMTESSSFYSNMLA

## O=C(c1ccccc1Cl)c1cccnc1-c1nnn(Cc2cc(C(F)(F)F)cc(C(F)(F)F)c2)c1-c1ccncc1 [Tradipitant, {2-[1-(3,5-bistrifluoromethylbenzyl)-5-pyridin-4-yl-1H-[1,2,3]triazol-4-yl]-pyridin-3-yl}-(2-chlorophenyl)-methanone]
[1]
  inhibition of binding: ≤ 50%
[2]; 0.3 mg/kg oral
  Concentration of tradipitant in plasma: 90.93 ng/mL and 83.38 ng/mL and 22.59 ng/mL and 51.20 ng/mL and 41.33 ng/mL
[2]; 1.0 mg/kg oral
  Concentration of tradipitant in plasma: 240.84 ng/mL and 100.97 ng/mL and 61.56 ng/mL and 175.58 ng/mL and 86.49 ng/mL
[2]; 3.0 mg/kg oral
  Concentration of tradipitant in plasma: 316.20 ng/mL and 682.91 ng/mL and 119.79 ng/mL and 122.73 ng/mL and 256.58 ng/mL
[3]
  ED50, occupancy of brain NK-1 receptors: 0.04 mg/kg
[4]; 0 to 5 scale, open label 85 mg bid for 1 to 8 weeks, 64 patients
  mean daily nausea score: about 1.63
[4]; 0 to 5 scale, open label extension 85 mg bid, 64 subjects
  median daily nausea score: 1.35
[4]; 85 mg bid
  change of average percentage of nausea-free days compared to pre-treatment: doubled or greater
  reduction of average daily nausea scores compared to pre-treatment: reduced by approximately one half
[4]; open label extension 85 mg bid
  mean percentage of days nausea-free: 45.91%
  median percentage of nausea-free days: 49.11%
[5]; 85 mg bid, confirms prior studies' findings
  tolerability: well tolerated
[5]; [7]
  CGI-S, change from baseline: −1.13
  DD-% Nausea Free Days, change from baseline: 28.8%
  DD-Nausea (Daily Diary Nausea Score, 0-5), change from baseline: −1.25
  GCSI, change from baseline: −0.93
  PAGI-SYM, change from baseline: −0.93
  PGI-C: 2.66
[5]; ITT Population, 85 mg bid, n = 73, listed as tradipitant
  DD-Nausea (Daily Diary Nausea Score, 0-5), change from baseline: −1.2
[5]; [8]
  CGI-S, change from baseline: −1.24
  DD-% Nausea Free Days, change from baseline: 32.3%
  DD-Nausea (Daily Diary Nausea Score, 0-5), change from baseline: −1.43
  GCSI, change from baseline: −1.10
  PAGI-SYM, change from baseline: −1.06
  PGI-C: 2.52
[5]; Vomiting Population, 85 mg bid, n = 58, listed as tradipitant
  DD-Nausea (Daily Diary Nausea Score, 0-5), change from baseline: −1.4
[5]; Week 1 vs Week 2
  Daily Diary Nausea Weekly Average, Effect size estimate: 0.314
[5]; Week 1 vs Week 3
  Daily Diary Nausea Weekly Average, Effect size estimate: 0.5556
[5]; Week 1 vs Week 4
  Daily Diary Nausea Weekly Average, Effect size estimate: 0.592
[5]; Week 2 vs Week 3
  Daily Diary Nausea Weekly Average, Effect size estimate: 0.2416
[5]; Week 2 vs Week 4
  Daily Diary Nausea Weekly Average, Effect size estimate: 0.278
[5]; Week 3 vs Week 4
  Daily Diary Nausea Weekly Average, Effect size estimate: 0.03647
[6]; 0.1 mg/kg po
  time after administration with significant inhibition of foot-tapping: up to 7 hours
[6]; 0.1 mg/kg po, 16 hours
  effect on foot-tapping by 16 hours after administration: significantly diminished
[6]; 1 mg/kg, 16 hours after administration
  inhibition at 1 mg/kg: > 50%
[6]; oral, 2 hours after administration, GR73632 3 pmol icv, read-out: ED50, inhibition of foot-tapping behavior
  ED50: 0.03 ± 0.004 mg/kg
